Tests used:
[1] = tested on: ABAE cells; experiment: PS exposure by 125I-annexin V binding; type: cell-based, bovine; conditions: 24 h
Experimental: (§1) All reagents were diluted in medium containing 10% serum and incubated with the cells at 37° C. for 24 h.
(§2) To study the effect of hypoxia, cells were seeded on 24 well plates and were incubated in a humidified normoxic atmosphere (21% O2, 5% CO2) for 48 h before being transferred to a humidified hypoxic atmosphere (1% O2, 5% CO2, 94% N2) in a sealed chamber (Billups Rothenberg Inc., Del Mar, Calif.). Cells were incubated in a hypoxic chamber for 24 h at 37° C. and were then returned to a normoxic environment for 4 h at 37° C. The cells were compared to a parallel culture from an identical passage, seeded on the same day and maintained entirely under normoxic conditions. In some studies, IL-1α (10 ng/ml) and TNFα (20 ng/ml) were added to the medium before transfer to the hypoxic chamber.
(§3) After treatment with the reagents described above, treated and control cells were incubated with 7.1 pmoles of ^125I-labeled annexin V (200 μl/well) in the binding buffer. After 2 h incubation at room temperature, cells were washed extensively and dissolved in 0.5 M of NaOH. The entire volume of 0.5 ml was transferred to plastic tubes and counted in a gamma counter. Non-specific binding was determined in the presence of 5 mM EDTA and was subtracted from experimental values. The results were expressed as net pmoles of cell-bound annexin V, normalized per 1×10^6 cells.
(§4) Maximal binding of annexin V was determined on cells simultaneously treated with actinomycin D and TNFα (50 ng/ml of each component). As has been previously reported, these agents cause apoptosis and PS exposure in 90-100% of endothelial cells (Lucas et al., 1998). Basal binding of ^125I-annexin V to untreated cells was determined in the presence of medium with 10% serum. The amount of ^125I-annexin V that bound to the untreated cultures was subtracted from that in the treated cultures. Exposure of PS was calculated according to the following formula: cell-bound annexin V (pmoles) under experimental conditions divided by maximal annexin V binding (pmoles), multiplied by 100. Each study was performed in duplicate and was performed at least three times. Mean values were calculated. The SE of the mean values from three separate experiments was less than 5%.

[2] = tested on: bEnd.3 cells; experiment: PS exposure by 125I-annexin V binding; type: cell-based, Mouse; conditions: bEnd.3, 24 h
Experimental: as §1, §2, §3, §4

[3] = tested on: tumor vascular endothelium of MDA-MB-435 tumors; experiment: Localization of biotinylated ch3G4 in tumors; type: in vivo, mice; conditions: i.v., one hour
Experimental: Localization of ch3G4 was examined in MDA-MB-435 human breast cancer cells growing in mice. Mice were injected intravenously with biotinylated ch3G4 or control IgG of irrelevant specificity. One hour later, the mice were exsanguinated, and their tumors were removed and frozen sections were cut. Biotinylated reagents were first incubated with streptavidin-Cy3 conjugate, washed in PBS, then incubated with MECA 32 antibody followed by FITC-tagged secondary antibody. Single images, taken with appropriate filters for Cy3 (red) and FITC (green) fluorescence respectively, were captured by digital camera and transferred to a computer.

[4] = tested on: mCMV RVG102; experiment: Survival of mCMV-infected mice; type: in vivo, Balb/C mice; conditions: 1 mg/mouse i.p. day 1, 0.5 mg/mouse every four days until day 26; past 90 days
[5] = tested on: orthotopic MDA-MB-435 breast cancer; experiment: 3G4 and ch3G4 tumor treatment; type: in vivo, mice; conditions: i.p. 800 μg day 15, 200 μg every two to three days, 400 μg day 35
Experimental: Tumors were also established using MD-MBA-435s cells and treated as described above. […] The treatment of large L540 tumors, MDA-MB-231 and MD-MBA-435s tumor cells for 60 days is shown in FIG. 8D, FIG. 8E and FIG. 8F. The antibodies caused tumor vascular injury, thrombosis and necrosis and retarded tumor growth, with no evidence of toxicity.
MD-MBA-435s lucerifase cells were obtained from Dr. Angels Sierra Jimenez, Barcelona, Spain and were grown in 10% DMEM. Mice were injected with tumor cells as described as above, and at 2 weeks post injection, the tumors were measured and the volume recorded. […] Treatment was initiated by IP injection (800 μg) at day 15 and continued with injections of 200 μg every two to three days until the final injection of 400 μg at day 35. Tumor volumes and mouse body weights were measured on injection days. Mice were sacrificed and perfused with saline for 12 minutes. The organs and tumor were removed, snap-frozen in liquid nitrogen and the tumor sectioned for immunohistochemistical analysis.

[6] = Binding of chimeric 3G4 to phospholipid-coated ELISA plates
Source text: FIG. 21. […] Phospholipids (PS, PI, PE, PC, SM, CL, PG and PA) were adsorbed to plastic of microtiter plates.

[7] = tested on: Vaccinia virus-infected U937 cells; type: cell-based; conditions: day 2 after infection, m.o.i. 2
[8] = tested on: bEnd.3 endothelial cells; experiment: PS translocation and viability of bEnd.3 cells treated with H2O2; conditions: low levels of H2O2
[9] = progressive disease before treatment; cited from earlier work
[10] = tested on: 3LL, Colo26 and MDA-MB-435 cells; experiment: Induction of PS exposure on tumor cell lines, FACS of 3G4 binding; type: cell-based; conditions: 10 nM, 24 hrs, Colo26, MDA-MB-435
Experimental: FIG. 25A, FIG. 25B and FIG. 25C. Induction of PS exposure on tumor cell lines by docetaxel. Mouse lewis lung carcinoma 3LL, mouse colon carcinoma Colo26 and human breast cancer MDA-MB-435 cells were treated with 10 nM of docetaxel for 24 hrs. […] The cells were then washed twice, FITC labeled goat anti-mouse IgG was added and the cells incubated for a further 30 mins. on ice. The cells were then washed and analyzed by FACS using a FACSCalibur cytometer (Becton-Dickinson, San Jose, Calif.) with CellQuest acquisition software.
The in vitro induction of PS exposure by subclinical concentrations of docetaxel was also examined by FACS analysis using a panel of tumor cell lines. Mouse lewis lung carcinoma 3LL, mouse colon carcinoma Colo26 and human breast cancer MDA-MB-435 cells were treated with 10 nM of docetaxel for 24 hrs and examined by FACS. […] Docetaxel incubations for 48 and 72 hrs were also conducted.

[11] = tested on: HUVEC and HMVEC; experiment: Induction of PS exposure on endothelial cells, FACS of 3G4 binding; type: cell-based, Human; conditions: 10 nM, 24 hrs
Experimental: FIG. 24A and FIG. 24B. Induction of PS exposure on endothelial cells by docetaxel. Human umbilical vein endothelial cells (HUVEC) and human microvessel endothelial cells (HMVEC) were treated with 10 nM of docetaxel for 24 hrs. […] The cells were then washed twice, FITC labeled goat anti-mouse IgG was added and the cells incubated for a further 30 mins. on ice. The cells were then washed and analyzed by FACS using a FACSCalibur cytometer (Becton-Dickinson, San Jose, Calif.) with CellQuest acquisition software.
The induction of PS exposure on endothelial cells by subclinical concentrations of docetaxel was examined in vitro by FACS analysis. Human umbilical vein endothelial cells (HUVEC) and human microvessel endothelial cells (HMVEC) were treated with 10 nM of docetaxel for 24 hrs and examined by FACS. […] Docetaxel incubations for 48 and 72 hrs were also conducted.

IL-6: interleukin-6
^125I-Annexin V (% of Max binding) ([1]; 20 ng/ml): 0%
^125I-Annexin V (% of Max binding) ([2]; 20 ng/ml): 0%

ch3G4: human-mouse chimeric 3G4: murine variable regions on human γ1 and κ constant regions, expressed in CHO cells
localization to tumor vascular endothelium [3]: binds to the tumor vascular endothelium
survival [4]: 80%
tumor growth as opposed to control [5]: effectively retarded tumor growth
binding to phospholipid-coated ELISA plates [6]: bound at least as did well as the murine 3G4
binding to virus-infected vs uninfected cells (FACS) [7]: significant shift

OO [Hydrogen peroxide, hydrogen peroxide]
cell viability [8]: 95%

TNFα
^125I-Annexin V (% of Max binding) ([1]; 20 ng/ml): 7.4%
^125I-Annexin V (% of Max binding) ([2]; 20 ng/ml): 13.7%

Thrombin
^125I-Annexin V (% of Max binding) ([1]; 50 nM): 8.8%
^125I-Annexin V (% of Max binding) ([2]; 50 nM): 17.4%

FGF-2: human fibroblast growth factor-2
^125I-Annexin V (% of Max binding) ([1]; 20 ng/ml): 0%
^125I-Annexin V (% of Max binding) ([2]; 20 ng/ml): 0%

NC(=O)c1nnn(Cc2cc(Cl)c(C(=O)c3ccc(Cl)cc3)c(Cl)c2)c1N [CAI, carboxyamidotriazole]
cancer patients with disease stabilization [9]: 49%

Interferon
^125I-Annexin V (% of Max binding) ([1]; 40 ng/ml): 8.6%
^125I-Annexin V (% of Max binding) ([2]; 40 ng/ml): 2.8%

IL-8: interleukin-8
^125I-Annexin V (% of Max binding) ([1]; 20 ng/ml): 0%
^125I-Annexin V (% of Max binding) ([2]; 20 ng/ml): 0%

VEGF
^125I-Annexin V (% of Max binding) ([1]; 20 ng/ml): 0%
^125I-Annexin V (% of Max binding) ([2]; 20 ng/ml): 0%

IL-10: interleukin-10
^125I-Annexin V (% of Max binding) ([1]; 20 ng/ml): 0%
^125I-Annexin V (% of Max binding) ([2]; 20 ng/ml): 0%

Scatter factor: recombinant hepatocyte growth factor
^125I-Annexin V (% of Max binding) ([1]; 40 ng/ml): 0%
^125I-Annexin V (% of Max binding) ([2]; 40 ng/ml): 0%

CC(=O)O[C@@]12CO[C@@H]1C[C@H](O)[C@@]1(C)C(=O)[C@H](O)C3=C(C)[C@@H](OC(=O)[C@H](O)[C@@H](NC(=O)OC(C)(C)C)c4ccccc4)C[C@@](O)([C@@H](OC(=O)c4ccccc4)[C@H]21)C3(C)C [docetaxel]
3G4 binding as compared with untreated cells [10]: significant increase in 3G4 binding
3G4 binding as compared to untreated cells [11]: significant increase in 3G4 binding

TGF β1: growth factor
^125I-Annexin V (% of Max binding) ([1]; 20 ng/ml): 0%
^125I-Annexin V (% of Max binding) ([2]; 20 ng/ml): 0%

B1: IL-1α: recombinant murine interleukin-1 alpha (protein, UniProt P01582 115-270, looked up)
Interleukin-1 alpha: SAPYTYQSDLRYKLMKLVRQKFVMNDSLNQTIYQDVDKHYLSTTWLNDLQQEVKFDMYAYSSGGDDSKYPVTLKISDSQLFVSAQGEDQPVLLKELPETPKLITGSETDLIFFWKSINSKNYFTSAAYPELFIATKEQSRVHLARGLPSMTDFQIS
^125I-Annexin V (% of Max binding) ([1]; 10 ng/ml): 6.4%
^125I-Annexin V (% of Max binding) ([2]; 10 ng/ml): 7.5%

B2: IL-1β: recombinant murine interleukin-1 beta (protein, UniProt P10749 118-269, looked up)
Interleukin-1 beta: VPIRQLHYRLRDEQQKSLVLSDPYELKALHLNGQNINQQVIFSMSFVQGEPSNDKIPVALGLKGKNLYLSCVMKDGTPTLQLESVDPKQYPKKKMEKRFVFNKIEVKSKVEFESAEFPNWYISTSQAEHKPVFLGNNSGQDIIDFTMESVSS
^125I-Annexin V (% of Max binding) ([1]; 10 ng/ml): 5.8%
^125I-Annexin V (% of Max binding) ([2]; 10 ng/ml): 5.5%

— patent US20040175378A1, “Selected antibody compositions and methods for binding to aminophospholipids” (Board of Regents, The University of Texas System, priority 2002, published 2004)
